Results on 14 compounds are retold here after ChEMBL document CHEMBL5665443, “Enzyme Inhibitor Single Concentration assay results for EUbOPEN Chemogenomics Library” (2024).

Experiment [1] deals with T1, Endonuclease III-like protein 1 (Homo sapiens) (UniProt P78549).
T1 sequence (whole entry): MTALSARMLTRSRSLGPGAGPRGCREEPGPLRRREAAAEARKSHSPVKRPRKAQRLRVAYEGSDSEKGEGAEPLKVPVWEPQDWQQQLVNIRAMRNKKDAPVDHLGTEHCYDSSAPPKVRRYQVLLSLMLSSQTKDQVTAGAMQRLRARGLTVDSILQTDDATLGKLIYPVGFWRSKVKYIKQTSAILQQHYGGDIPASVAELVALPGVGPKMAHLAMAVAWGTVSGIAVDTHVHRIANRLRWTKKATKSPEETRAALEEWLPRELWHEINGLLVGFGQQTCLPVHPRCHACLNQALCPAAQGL
The settings on record: Compound Concentration 10.0 uM, Hit No.

Experiment [2] has as its target G/T mismatch-specific thymine DNA glycosylase (Homo sapiens) (UniProt Q13569). The settings on record: Compound Concentration 10.0 uM.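 Further: human TDG cleavage of quenched duplex DNA oligonucleotides coupled to APE1, strand release read as fluorescence at 594 nm, inhibition of TDG activity.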
Experiment [3] has as its target Methyl-CpG-binding domain protein 4 (Homo sapiens) (UniProt O95243). The settings on record: Compound Concentration 10.0 uM.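 Further: MBD4 activity read as fluorescence at 594 nm from cleavage and release of a quenched duplex DNA oligonucleotide, with APE1 coupled to incise the strand and raise turnover.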
The target of experiment [4] is Uracil-DNA glycosylase (Homo sapiens) (UniProt P13051). Particulars: Compound Concentration 10.0 uM.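 Further: UNG excision on a quenched double-stranded DNA oligo probe, with APE1 added for strand incision and turnover, read as fluorescence at 594 nm as strands separate.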
Sequence of Uracil-DNA glycosylase (Homo sapiens) (P13051 whole entry): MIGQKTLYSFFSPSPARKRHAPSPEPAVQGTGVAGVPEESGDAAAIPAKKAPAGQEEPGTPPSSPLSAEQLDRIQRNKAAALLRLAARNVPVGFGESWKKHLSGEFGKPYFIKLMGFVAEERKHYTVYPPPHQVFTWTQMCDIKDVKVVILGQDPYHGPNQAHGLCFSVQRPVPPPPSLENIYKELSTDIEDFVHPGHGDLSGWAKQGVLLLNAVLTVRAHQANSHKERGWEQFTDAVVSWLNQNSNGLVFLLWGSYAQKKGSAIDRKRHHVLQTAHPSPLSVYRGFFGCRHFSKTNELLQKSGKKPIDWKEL
Experiment [5] has as its target N-glycosylase/DNA lyase (Homo sapiens) (UniProt O15527). The settings on record: Compound Concentration 10.0 uM, Hit No.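 Further: OGG1 cleavage of a quenched duplex DNA oligonucleotide, coupled to APE1 for strand incision, read as fluorescence at 594 nm.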
Experiment [6] addresses Endonuclease 8-like 1 (Homo sapiens) (UniProt Q96FI4). Particulars: Compound Concentration 10.0 uM, Hit No.
Experiment [7] has as its target T2, Adenine DNA glycosylase (Homo sapiens) (UniProt Q9UIF7).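 Further: human MUTYH activity read as 594 nm fluorescence from cleavage and release of a quenched DNA duplex, coupled with APE1 for strand incision, lower signal meaning inhibition.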
T2 sequence (whole entry): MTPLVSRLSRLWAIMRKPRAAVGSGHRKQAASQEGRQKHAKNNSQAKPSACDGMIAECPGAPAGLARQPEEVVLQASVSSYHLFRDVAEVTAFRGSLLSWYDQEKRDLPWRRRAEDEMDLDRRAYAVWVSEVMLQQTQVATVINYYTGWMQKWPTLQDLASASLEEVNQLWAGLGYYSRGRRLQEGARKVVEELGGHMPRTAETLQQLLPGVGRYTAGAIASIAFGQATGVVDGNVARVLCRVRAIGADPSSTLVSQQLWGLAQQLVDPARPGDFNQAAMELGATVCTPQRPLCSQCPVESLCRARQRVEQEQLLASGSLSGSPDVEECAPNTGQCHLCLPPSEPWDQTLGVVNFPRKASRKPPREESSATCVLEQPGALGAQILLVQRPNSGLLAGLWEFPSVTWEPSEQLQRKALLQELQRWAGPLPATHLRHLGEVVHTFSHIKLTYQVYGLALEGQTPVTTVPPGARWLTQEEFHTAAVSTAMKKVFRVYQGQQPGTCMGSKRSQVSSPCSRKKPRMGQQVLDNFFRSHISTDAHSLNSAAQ
The settings on record: Compound Concentration 10.0 uM, Hit No.

For experiment [8], the target named is T3, Endonuclease 8-like 2 (Homo sapiens) (UniProt Q969S2).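 Further: fluorescence at 594 nm reports NEIL2 cutting and release of a quenched double-stranded DNA oligo substrate, reduced signal read as inhibition.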
T3 sequence (whole entry): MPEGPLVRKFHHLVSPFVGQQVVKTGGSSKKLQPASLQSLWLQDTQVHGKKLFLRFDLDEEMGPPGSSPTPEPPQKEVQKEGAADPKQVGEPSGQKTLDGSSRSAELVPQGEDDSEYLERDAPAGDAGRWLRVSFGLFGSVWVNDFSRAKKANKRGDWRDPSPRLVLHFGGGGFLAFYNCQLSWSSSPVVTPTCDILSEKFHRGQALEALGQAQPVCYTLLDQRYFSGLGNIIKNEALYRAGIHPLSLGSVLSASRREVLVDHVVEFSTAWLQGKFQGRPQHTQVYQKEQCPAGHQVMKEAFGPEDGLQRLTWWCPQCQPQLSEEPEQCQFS
The settings on record: Compound Concentration 10.0 uM, Hit No.

Experiment [9] has as its target T4, Single-strand selective monofunctional uracil DNA glycosylase (Homo sapiens) (UniProt Q53HV7).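 Further: enzymatic SMUG1 assay coupled with APE1, reading fluorescence at 594 nm released when a quenched double-stranded DNA oligonucleotide substrate is cleaved and separated.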
T4 sequence (whole entry): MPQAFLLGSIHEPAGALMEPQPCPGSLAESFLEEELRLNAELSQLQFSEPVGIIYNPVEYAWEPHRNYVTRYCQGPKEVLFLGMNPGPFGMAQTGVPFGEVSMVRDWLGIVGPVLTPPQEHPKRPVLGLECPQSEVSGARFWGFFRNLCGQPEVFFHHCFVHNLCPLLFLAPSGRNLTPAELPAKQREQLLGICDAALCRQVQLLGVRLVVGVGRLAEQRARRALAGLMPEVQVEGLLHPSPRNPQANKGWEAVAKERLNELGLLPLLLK
The settings on record: Compound Concentration 10.0 uM, Hit No.

Experiment [10] deals with DNA-3-methyladenine glycosylase (Homo sapiens) (UniProt P29372). Particulars: Compound Concentration 10.0 uM.
Sequence of DNA-3-methyladenine glycosylase (Homo sapiens) (P29372 whole entry): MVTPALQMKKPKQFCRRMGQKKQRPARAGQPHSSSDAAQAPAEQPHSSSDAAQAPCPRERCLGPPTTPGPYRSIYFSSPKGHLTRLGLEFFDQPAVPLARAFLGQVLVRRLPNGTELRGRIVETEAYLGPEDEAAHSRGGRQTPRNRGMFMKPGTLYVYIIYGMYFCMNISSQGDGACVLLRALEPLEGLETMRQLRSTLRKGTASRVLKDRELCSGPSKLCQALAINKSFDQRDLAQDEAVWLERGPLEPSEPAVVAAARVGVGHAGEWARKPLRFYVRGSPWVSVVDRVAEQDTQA

Sequence of G/T mismatch-specific thymine DNA glycosylase (Homo sapiens) (Q13569 whole entry, the tested form may be a part): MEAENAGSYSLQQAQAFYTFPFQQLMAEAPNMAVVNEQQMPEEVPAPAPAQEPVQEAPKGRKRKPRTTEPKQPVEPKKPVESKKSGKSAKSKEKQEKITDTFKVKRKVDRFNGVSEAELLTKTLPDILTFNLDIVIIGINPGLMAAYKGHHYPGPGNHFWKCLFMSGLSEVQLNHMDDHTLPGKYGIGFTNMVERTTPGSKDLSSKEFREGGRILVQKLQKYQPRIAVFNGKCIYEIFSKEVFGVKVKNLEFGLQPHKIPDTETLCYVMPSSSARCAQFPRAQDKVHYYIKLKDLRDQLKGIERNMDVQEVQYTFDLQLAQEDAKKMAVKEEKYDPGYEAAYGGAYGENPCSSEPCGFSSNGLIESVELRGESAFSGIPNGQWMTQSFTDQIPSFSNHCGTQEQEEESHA
Sequence of Endonuclease 8-like 1 (Homo sapiens) (Q96FI4 whole entry): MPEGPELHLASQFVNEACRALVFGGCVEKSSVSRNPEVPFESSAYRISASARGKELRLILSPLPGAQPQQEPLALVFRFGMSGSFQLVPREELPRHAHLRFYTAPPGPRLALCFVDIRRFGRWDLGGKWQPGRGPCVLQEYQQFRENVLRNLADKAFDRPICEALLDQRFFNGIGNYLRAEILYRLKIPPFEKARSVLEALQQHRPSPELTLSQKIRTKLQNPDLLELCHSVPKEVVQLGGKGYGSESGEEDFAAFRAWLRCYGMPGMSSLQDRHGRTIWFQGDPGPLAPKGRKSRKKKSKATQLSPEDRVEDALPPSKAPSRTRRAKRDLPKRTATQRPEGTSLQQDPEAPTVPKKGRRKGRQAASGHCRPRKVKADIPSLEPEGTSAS
Sequence of N-glycosylase/DNA lyase (Homo sapiens) (O15527 whole entry): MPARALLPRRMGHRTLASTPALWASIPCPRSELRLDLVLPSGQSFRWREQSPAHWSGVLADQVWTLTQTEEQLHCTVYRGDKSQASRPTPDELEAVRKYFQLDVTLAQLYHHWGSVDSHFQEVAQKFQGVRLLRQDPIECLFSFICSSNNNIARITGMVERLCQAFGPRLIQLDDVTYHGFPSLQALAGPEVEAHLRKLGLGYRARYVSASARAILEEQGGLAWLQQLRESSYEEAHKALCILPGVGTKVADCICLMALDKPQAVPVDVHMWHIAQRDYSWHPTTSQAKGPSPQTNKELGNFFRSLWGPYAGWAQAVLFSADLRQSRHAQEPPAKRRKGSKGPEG
Sequence of Methyl-CpG-binding domain protein 4 (Homo sapiens) (O95243 whole entry, the tested form may be a part): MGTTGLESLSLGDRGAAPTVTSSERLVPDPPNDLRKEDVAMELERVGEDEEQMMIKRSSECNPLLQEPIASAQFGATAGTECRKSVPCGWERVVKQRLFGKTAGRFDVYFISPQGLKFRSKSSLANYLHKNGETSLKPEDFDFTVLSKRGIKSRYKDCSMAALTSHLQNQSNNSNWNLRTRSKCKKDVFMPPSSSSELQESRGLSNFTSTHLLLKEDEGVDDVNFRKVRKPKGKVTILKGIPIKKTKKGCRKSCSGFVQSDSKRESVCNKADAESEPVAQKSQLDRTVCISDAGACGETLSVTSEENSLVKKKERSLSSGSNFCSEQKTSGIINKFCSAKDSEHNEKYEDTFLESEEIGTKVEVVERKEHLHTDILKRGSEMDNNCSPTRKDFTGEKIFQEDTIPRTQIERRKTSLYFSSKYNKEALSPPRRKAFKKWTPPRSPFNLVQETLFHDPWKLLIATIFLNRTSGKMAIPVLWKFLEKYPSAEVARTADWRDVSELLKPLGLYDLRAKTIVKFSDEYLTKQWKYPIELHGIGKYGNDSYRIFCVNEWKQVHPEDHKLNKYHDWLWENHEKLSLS

The term inhibition denotes the drop in the measured response relative to a control, in per cent. As to `COCCOCCn1nc2c(c1C)-c1c(Cl)ccc3c1c(C)c(C(=O)O)n3CCCOc1cc(cc3c(F)c(Cl)ccc13)CCc1cc(nn1C)CSC2`, the inhibition was -0.959% in [1]; 59.9% in [2] (Hit No); 77.7% in experiment [3] (Hit No); 9.88% in [4] (Hit No); 28.8% in experiment [5]; -6.35% in experiment [6]. For the same compound, the inhibition in experiment [7] came to 36%; in [8] it was 5.63%; in [9] it was 17.3%; in [10] (Hit No), 52.2%.

Take `CCOC(=O)N1CCC(c2cc(O)n3nc(C)c(-c4ccc(F)cc4)c3n2)CC1`: the inhibition in experiment [1] was 11.3%; in experiment [2] (Hit No), 48.9%; in experiment [3] (Hit No), 40.6%; in [4] (Hit No) it was -0.428%; in experiment [5], -3.67%; in experiment [6] it was 5.34%. Also, the inhibition in experiment [7] came to 75.7%; in experiment [8], 2.71%; in experiment [9] it was 6.03%; in experiment [10] (Hit No), 38.1%.

As to `COc1ccc2cc(S(=O)(=O)N[C@H](CC(=O)N[C@H](Cc3ccc(CN4[C@H](C)CCC[C@@H]4C)cc3)C(=O)N(C)C(C)C)c3ccc4c(c3)OCO4)ccc2c1`, the inhibition is 7.79% in [1]; 44.9% in experiment [2] (Hit No); 19.6% in [3] (Hit No); 3.72% in [4] (Hit No); -6.96% in [5]; 12.6% in [6]. For the same compound, the inhibition is -1.26% in [7], 10.8% in [8], -5.31% in experiment [9] and 30% in experiment [10] (Hit No).

As for `CCn1cc(-c2ccnc3[nH]c(-c4cccc(CN(C)C)c4)cc23)c(-c2ccc(NC(=O)N(C)C)cc2)n1`, the inhibition in experiment [1] was 2.18%; in experiment [2] (Hit No), 49%; in [3] (Hit No), 22.5%; in [4] (Hit Yes), 25%; in [5], 14.9%; in experiment [6], -6.47%. For the same compound, the inhibition in [7] stood at 78.6%; in [8], 23.1%; in experiment [9] it was 24.3%; in experiment [10] (Hit No), 62.9%.

With `CC(C)C[C@@H](C(=O)N[C@@H](Cc1ccc(OCc2ccccc2)cc1)C(=O)NC(C)(C)C)N(C)Cc1ccc(C(C)(C)C)cc1`, the inhibition in [1] was 23.7%; in experiment [2] (Hit No), 11.4%; in [3] (Hit No), 16.1%; in experiment [4] (Hit No), -6.44%; in [5], 14.7%; in [6] it was 2.38%. The inhibition in experiment [7] is 5.01%; in [8], -9.01%; in experiment [9] it was -4.08%; in [10] (Hit No), 6.32%.

With `COc1ccc(NC(=O)c2ccc(-c3ccc(-c4noc(C)n4)cc3C)cc2)cc1OCCN(C)C`, the inhibition in experiment [1] is 8.82%; in [2] (Hit Yes), 101%; in experiment [3] (Hit Yes), 98%; in experiment [4] (Hit No), 2%; in experiment [5] it was -3.51%; in experiment [6] it was 1.34%. For the same compound, the inhibition in experiment [7] is 104%; in experiment [8], -1.11%; in [9], -6.46%; in experiment [10] (Hit Yes), 83.7%.

With `O=C1CC[C@@]2(O)[C@H]3Cc4ccc(O)c5c4[C@@]2(CCN3CC2CC2)[C@H]1O5`, the inhibition in [1] was -4.39%; in experiment [2] (Hit No) it was 27.8%; in experiment [3] (Hit No), 4.42%; in experiment [4] (Hit No) it was -2.62%; in [5], -3.73%; in experiment [6], -9.92%. For the same compound, the inhibition was 14.6% in experiment [7], -8.5% in experiment [8], -9.51% in experiment [9] and 4.49% in experiment [10] (Hit No).

Turning to `CCOC(=O)c1c(C)[nH]c2ccc3c(c12)CN1CCc2cc(OC)ccc2C1O3` (stereo not given), the inhibition in [1] is -1.01%; in experiment [2] (Hit No), 29.8%; in experiment [3] (Hit No), 29.1%; in experiment [4] (Hit No) it was -1.04%; in experiment [5], 32.3%; in experiment [6], -0.0556%. Further, the inhibition was 18.2% in [7], 3.01% in [8], 8.69% in experiment [9] and 18.6% in experiment [10] (Hit No).

With `CC(CNS(=O)(=O)C(C)C)c1ccc(-c2ccc(C#N)cc2)cc1` (stereo not given), the inhibition in [1] is 4.7%; in [2] (Hit No), 11.5%; in experiment [3] (Hit No) it was 19.3%; in experiment [4] (Hit No) it was -7.52%; in experiment [5], -4.77%; in [6] it was 12%. Moreover, the inhibition in [7] is -2.6%; in experiment [8], 0.669%; in [9] it was 7.84%; in experiment [10] (Hit No) it was 23.5%.

As for `CCOc1c2c(c(OCC)c3ncccc13)CN(c1ccc(CS(=O)(=O)NC(=O)Cc3ccccc3OC)cc1C)C2=O`, the inhibition was 7.05% in experiment [1]; 20.4% in experiment [2] (Hit No); 14.3% in [3] (Hit No); -8.19% in [4] (Hit No); 3.01% in experiment [5]; 2.17% in experiment [6]. Further, the inhibition in [7] was 26.6%; in experiment [8], 2.01%; in experiment [9] it was -1.24%; in experiment [10] (Hit No) it was -2.33%.

As for `NC(N)=Nc1nc(CSCC/C(N)=N/S(N)(=O)=O)cs1`, the inhibition in experiment [1] was -2.47%; in [2] (Hit No), 13.5%; in [3] (Hit No) it was 6.83%; in [4] (Hit No) it was -4.9%; in [5] it was 2.35%; in experiment [6] it was 9.58%. Also, the inhibition was 21.8% in experiment [7], 17.5% in experiment [8], -5.17% in experiment [9] and 11.5% in experiment [10] (Hit No).

For `c1ccc2nc(N3CCNCC3)ccc2c1`, the inhibition in experiment [1] was 13.8%; in [2] (Hit No), 12.3%; in experiment [3] (Hit No) it was -0.572%; in experiment [4] (Hit No), 1.1%; in [5], -7.23%; in [6], 8.31%. Also, the inhibition was 11.1% in experiment [7], 7.8% in experiment [8], 2.02% in experiment [9] and -3.87% in experiment [10] (Hit No).

In the case of `O=C(COc1cccc2ccccc12)Nc1cc(Cl)ccc1C(=O)O`, the inhibition came out at 12.9% in experiment [1]; 37.7% in experiment [2] (Hit No); 33.2% in experiment [3] (Hit No); 2.63% in experiment [4] (Hit No); 24.8% in experiment [5]; 6.38% in experiment [6]. Further, the inhibition in [7] turned out to be 64.4%; in experiment [8] it was 5.25%; in experiment [9] it was 8.57%; in experiment [10] (Hit No), 16.5%.

With `COc1cc(NC(=O)c2ccc(-c3ccc(Cl)cc3)o2)cc(OC)c1`, the inhibition is 8.82% in experiment [1]; 9.84% in experiment [2] (Hit No); 21.1% in [3] (Hit No); 3.14% in experiment [4] (Hit No); 3.08% in experiment [5]; 6.97% in [6]. Also, the inhibition in [7] was -0.703%; in experiment [8] it was -9.78%; in [9] it was 15.3%; in experiment [10] (Hit No), 18%.
